How the values were obtained:
JA 657 chicks = assay: Chick sleep/sedation test (IM injection, 90 minute observation); format: in vivo; conditions: for Sed (sedation time as % of the period) / TA (time to torpor between injection and first stage of sleep) / TS (duration of the first sleep) / Tsed (total sedation time over the period): 90 min observation; for TS (mins) Placebo diff'ce: extension of first sleep compared with test controls
Experimental: (§1) The dihydroimidazo[5,1-a]-β-carboline derivatives of the invention, in particular those in the form of the methyl sulfonate, (soluble), were tested in chicks, and certain compounds that were active in the chick were administered in single doses to six Beagle dogs of both sexes for a polysomnographic study of at least 4 hours duration.
JA 657 chicks from Couvoir Gauguet, 44 Le Pin, were accustomed for at least 6 days to an alternating program of light and darkness with 12 hours of daylight and 12 hours of darkness at a regulated temperature of 25±2° C. They were fed ad libitum and were placed under test compounds in a vivarium in groups of 3 individuals with a mean weight of 100±10 g on the day of the test. At that age in this species, there is no effective meningeal (hemato-encephalic) barrier. The test products were injected in 3 doses (1, 3 and 10 mg/kg) intramuscularly (IM) in solution or in an aqueous suspension (1 drop of Tween 80 per ml), each to two batches of 3 chicks which were observed over 90 minutes. For each test series (18 vivaria), there was at least one batch of negative control chicks receiving the same volume (0.2 ml IM) of water for injectable preparations.
During the 90 minute observation period, the chicks were strongly stimulated every 15 minutes by presenting a full feeding trough, and each 5 minute period was given a grade from among the following 5 states, corresponding to the state of alertness over that period:
Mobile, sitting alert, drowsy, asleep, sleep-like state. The parameters studied were the time to torpor (TA) passed between injection and the first stage of sleep, the duration of the first sleep (TS) and the total sedation time over the period (Tsed), expressed in minutes and as a % of the period (Sed).
To compare the results of tests carried out at different dates, the extension of the duration of the first sleep TS compared with the test controls was recorded.

Beagle dogs = assay: Polysomnographic study in the dog (EEG, 4 hours after oral gelule); format: in vivo; conditions: for Latency: Paradoxal (REM) sleep / Latency: Slow wave sleep (SWS) / Latency: Somnolence / Time passed at stage: Alertness / Time passed at stage: REM / Time passed at stage: SWS / Time passed at stage: Somnolence: oral gelule; for Time passed at stage: Alertness / Time passed at stage: REM / Time passed at stage: SWS / Time passed at stage: Somnolence: four hours of monitoring
Experimental: as §1
Polysomnographic tests were carried out for each of the three products from the series, on 6 dogs of both sexes, adults from the certified breeding kennels at HARLAN, 03 Gannat, using stainless steel electrodes surgically implanted for the duration of the test in contact with the frontal bones through the sinus, facing the motor regions of the encephalus. The Nishino et al method adapted by Tafani, Valin et al has been described elsewhere. It comprised recording two traces for eye movements, one trace for muscular movements (concentric electrode in the nape muscles) and two electroencephalographic (EEG) traces. The digital EEG trace was recorded using a Nicollet Schwarzer polygraph or the like (DELTAMED Coherence 2 and 3, MEI Galileo NT) for 4 hours after administering a 00 gelule containing 0, 16 or 48 mg of the test product (i.e. a mean of 0,1 and 3 mg/kg of live weight).
Each dog was monitored for 4 hours twice a day over two days, morning and afternoon, after one week's acclimatization to the monitoring cage, a 1 m^2, 80 cm high stainless steel cage of the SHOR-LINE type. For each dog, monitoring always commenced at the same time. A meal was distributed 30 minutes before starting monitoring.
The polysomnographic traces could differentiate between at least 4 stages for each consecutive 30 second period: awake, somnolence, slow sleep and paradoxal sleep. The latency of the appearance of each of the first nonalert episodes and the duration of each of the stages per 2 hour period were recorded for each dog. Comparing the means allowed the effect of the test products on the sleep microstructure to be studied.

SMILES	Sed (sedation time as % of the period) (JA 657 chicks; Dose: 1 mg/kg)	TA (time to torpor between injection and first stage of sleep) (JA 657 chicks; Dose: 1 mg/kg)	TS (duration of the first sleep) (JA 657 chicks; Dose: 1 mg/kg)	Tsed (total sedation time over the period) (JA 657 chicks; Dose: 1 mg/kg)	TS (mins) Placebo diff'ce (JA 657 chicks; Dose: 1 mg/kg)	Sed (sedation time as % of the period) (JA 657 chicks; Dose: 3 mg/kg)	TA (time to torpor between injection and first stage of sleep) (JA 657 chicks; Dose: 3 mg/kg)	TS (duration of the first sleep) (JA 657 chicks; Dose: 3 mg/kg)	Tsed (total sedation time over the period) (JA 657 chicks; Dose: 3 mg/kg)	TS (mins) Placebo diff'ce (JA 657 chicks; Dose: 3 mg/kg)	Sed (sedation time as % of the period) (JA 657 chicks; Dose: 10 mg/kg)	TA (time to torpor between injection and first stage of sleep) (JA 657 chicks; Dose: 10 mg/kg)	TS (duration of the first sleep) (JA 657 chicks; Dose: 10 mg/kg)	Tsed (total sedation time over the period) (JA 657 chicks; Dose: 10 mg/kg)	TS (mins) Placebo diff'ce (JA 657 chicks; Dose: 10 mg/kg)	Latency: Paradoxal (REM) sleep (Beagle dogs; 1 mg)	Latency: Slow wave sleep (SWS) (Beagle dogs; 1 mg)	Latency: Somnolence (Beagle dogs; 1 mg)	Time passed at stage: Alertness (Beagle dogs; 1 mg)	Time passed at stage: REM (Beagle dogs; 1 mg)	also measured
CS(=O)(=O)O.Cc1ncc2n1CCc1c-2n(C)c2ccccc12 [Example 1, 3,11-dimethyl-5,6-dihydroimidazo[5,1-a]-β-carboline methane sulfonate]	71.7%	7 min	56.5 min	64.5 min	56 min	87.2%	4.5 min	78.5 min	78.5 min	78 min	96.7%	1 min	86 min	87 min	85.7 min	101 ± 80.3 min	52 ± 24.8 min	47 ± 19.1 min	139 ± 69.1 min	23 ± 19.1 min	latency of the first somnolence (in words) (Beagle dogs; 1 and 3 mg/kg, versus placebo): clearer in the 3 mg/kg dose; Time passed at stage: SWS (Beagle dogs; 1 mg): 51 ± 42.3 min; Time passed at stage: Somnolence (Beagle dogs; 1 mg): 27 ± 10.4 min; Latency: Paradoxal (REM) sleep (Beagle dogs; 3 mg): 50 ± 22.2 min; Latency: Slow wave sleep (SWS) (Beagle dogs; 3 mg): 27 ± 8.0 min; Latency: Somnolence (Beagle dogs; 3 mg): 21 ± 7.1 min; Time passed at stage: Alertness (Beagle dogs; 3 mg): 106 ± 34.7 min; Time passed at stage: REM (Beagle dogs; 3 mg): 29 ± 13.7 min; Time passed at stage: SWS (Beagle dogs; 3 mg): 65 ± 30.2 min; Time passed at stage: Somnolence (Beagle dogs; 3 mg): 40 ± 10.9 min
COc1ccc2[nH]c3c(c2c1)CCn1c-3cnc1C.CS(=O)(=O)O [Example 2, 8-methoxy-3-methyl-5,6-dihydroimidazo[5,1-a]-β-carboline methane sulfonate]	27.8%	16 min	3 min	25 min	3 min	69.4%	8.5 min	41 min	62.5 min	41 min	92.2%	7 min	83 min	83 min	83 min	114 ± 53 min	44 ± 16.3 min	40 ± 14.7 min	136 ± 40.3 min	13.5 ± 10.6 min	Time passed at stage: SWS (Beagle dogs; 1 mg): 59 ± 20.5 min; Time passed at stage: Somnolence (Beagle dogs; 1 mg): 31 ± 4.6 min; Latency: Paradoxal (REM) sleep (Beagle dogs; 3 mg): 63 ± 21.1 min; Latency: Slow wave sleep (SWS) (Beagle dogs; 3 mg): 45 ± 5.4 min; Latency: Somnolence (Beagle dogs; 3 mg): 37 ± 6.7 min; Time passed at stage: Alertness (Beagle dogs; 3 mg): 123 ± 30.5 min; Time passed at stage: REM (Beagle dogs; 3 mg): 20 ± 9.5 min; Time passed at stage: SWS (Beagle dogs; 3 mg): 60 ± 26.9 min; Time passed at stage: Somnolence (Beagle dogs; 3 mg): 36 ± 15.4 min
CS(=O)(=O)O.Cc1ncc2n1CCc1c-2[nH]c2ccc(Cl)cc12 [Example 13, 8-chloro-3-methyl-5,6-dihydroimidazo[5,1-a]-β-carboline methane sulfonate]	57.8%	16.5 min	33.5 min	52 min	33 min	81.1%	9.5 min	73 min	73 min	73 min	95.6%	4 min	86 min	86 min	85.7 min	63 ± 28.2 min	32 ± 11.5 min	25 ± 11.6 min	135 ± 44.3 min	21 ± 13.6 min	Time passed at stage: SWS (Beagle dogs; 1 mg): 57 ± 26.5 min; Time passed at stage: Somnolence (Beagle dogs; 1 mg): 24 ± 2.6 min; Latency: Paradoxal (REM) sleep (Beagle dogs; 3 mg): 56 ± 19.5 min; Latency: Slow wave sleep (SWS) (Beagle dogs; 3 mg): 35 ± 11 min; Latency: Somnolence (Beagle dogs; 3 mg): 27 ± 9.1 min; Time passed at stage: Alertness (Beagle dogs; 3 mg): 122 ± 36.5 min; Time passed at stage: REM (Beagle dogs; 3 mg): 26 ± 13.5 min; Time passed at stage: SWS (Beagle dogs; 3 mg): 61 ± 24.9 min; Time passed at stage: Somnolence (Beagle dogs; 3 mg): 31 ± 7 min
CS(=O)(=O)O.Cc1ccc2[nH]c3c(c2c1)CCn1c-3cnc1C [Example 18, 3,8-dimethyl-5,6-dihydroimidazo[5,1-a]-β-carboline methane sulfonate]	69.4%	5 min	32.5 min	62.5 min	24 min	63.9%	4.5 min	30.5 min	57.5 min	22.5 min	90.6%	7.5 min	76 min	81.5 min	68 min						
CS(=O)(=O)O.Cc1ccc2c(c1)c1c(n2C)-c2cnc(C)n2CC1 [Example 19, 3,8,11-trimethyl-5,6-dihydroimidazo[5,1-a]-β-carboline methane sulfonate]	49.4%	4 min	17.5 min	44.5 min	11 min	62.8%	3.5 min	46.5 min	56.5 min	38.5 min	75.0%	3.5 min	60 min	67.5 min	52 min						
CCn1c2c(c3cc(C)ccc31)CCn1c-2cnc1C.CS(=O)(=O)O [Example 20, 11-ethyl-3,8-dimethyl-5,6-dihydroimidazo-[5,1-a]-β-carboline methane sulfonate]	80%	2 min	65.5 min	72 min	57 min	79.4%	1.5 min	51.5 min	71.5 min	43.5 min	97.2%	1.5 min	87.5 min	87.5 min	81.5 min						
